Data published in patent publication US12018001B2, “Pyrimidine cyclohexenyl glucocorticoid receptor modulators” (priority 2018, dated 2024).
pKi: −log10 of the molar value.

Biological target: T1, glucocorticoid receptor (Homo sapiens, UniProt P04150)
T1 construct: host or cells: HepG2
T1 sequence (P04150 1-777): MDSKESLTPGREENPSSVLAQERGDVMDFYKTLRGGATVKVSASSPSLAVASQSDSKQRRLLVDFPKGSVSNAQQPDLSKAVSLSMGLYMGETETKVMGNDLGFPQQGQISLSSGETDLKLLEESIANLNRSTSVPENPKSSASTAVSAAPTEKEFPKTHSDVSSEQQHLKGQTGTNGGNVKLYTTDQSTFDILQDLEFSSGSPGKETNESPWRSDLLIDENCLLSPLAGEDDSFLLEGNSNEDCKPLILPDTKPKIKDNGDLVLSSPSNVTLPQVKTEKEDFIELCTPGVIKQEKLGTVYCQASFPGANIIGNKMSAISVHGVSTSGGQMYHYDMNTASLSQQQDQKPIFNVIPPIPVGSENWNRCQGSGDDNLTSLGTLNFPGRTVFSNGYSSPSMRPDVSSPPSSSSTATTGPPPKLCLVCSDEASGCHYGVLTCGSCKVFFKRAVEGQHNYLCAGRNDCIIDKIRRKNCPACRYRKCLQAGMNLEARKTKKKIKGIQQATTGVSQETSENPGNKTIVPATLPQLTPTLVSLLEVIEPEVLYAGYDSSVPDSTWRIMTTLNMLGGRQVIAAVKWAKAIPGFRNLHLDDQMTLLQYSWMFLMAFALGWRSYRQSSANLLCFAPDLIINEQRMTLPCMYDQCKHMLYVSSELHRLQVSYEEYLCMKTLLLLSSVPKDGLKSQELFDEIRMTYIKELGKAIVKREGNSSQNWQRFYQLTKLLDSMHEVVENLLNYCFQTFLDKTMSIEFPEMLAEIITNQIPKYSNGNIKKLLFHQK
Assay: Hep G2 TAT assay: induction of TAT by dexamethasone in HepG2 cells
Type: cell-based
Protocol: Glucocorticoid mediated activation of TAT occurs by transactivation of glucocorticoid response elements in the TAT promoter by glucocorticoid receptor-agonist complex.
TAT activity was measured as outlined in the literature by A. Ali et al., J. Med. Chem., 2004, 47, 2441-2452.
HepG2 cells were cultured using MEME media supplemented with 10% (v/v) foetal bovine serum; 2 mM L-glutamine and 1% (v/v) NEAA at 37° C., 5%/95% (v/v) CO2/air. The HepG2 cells were counted and adjusted to yield a density of 0.125×10^6 cells/ml in RPMI 1640 without phenol red, 10% (v/v) charcoal stripped FBS, 2 mM L-glutamine and seeded at 25,000 cells/well in 200 μl into 96 well, sterile, tissue culture micro titre plates, and incubated at 37° C., 5% CO2 for 24 hours
Growth media was removed and replaced with assay media {RPMI 1640 without phenol red, 2 mM L-glutamine+10 μM forskolin}. […] Compounds were serially half log diluted in 100% (v/v) dimethylsulphoxide from a 10 mM stock.
HepG2 cells were then lysed with 30 μl of cell lysis buffer containing a protease inhibitor cocktail for 15 minutes at 4° C. 155 μl of substrate mixture was then added containing 5.4 mM Tyrosine sodium salt, 10.8 mM alpha ketoglutarate and 0.06 mM pyridoxal 5′ phosphate in 0.1 M potassium phosphate buffer (pH 7.4). After 2 hours incubation at 37° C. the reaction was terminated by the addition of 15 μl of 10 M aqueous potassium hydroxide solution, and the plates incubated for a further 30 minutes at 37° C. The TAT activity product was measured by absorbance at λ 340 nm.
[compound] and fitting the data to a 4 parameter logistic equation.

Row | Compound | pKi
1 | O=c1[nH]c(C2CC=C(c3ccc(OC(F)(F)F)cc3Cl)CC2)c(Cc2ccccc2)c(=O)[nH]1 (stereo not shown) [Example 60] | 7.39
2 | Cn1ncc2c(C3=CCC(c4[nH]c(=O)[nH]c(=O)c4Cc4ccccc4)CC3)cccc21 (stereo not shown) [Example 61] | 6.31
3 | CC(C)Cn1nccc1C1=CCC(c2[nH]c(=O)[nH]c(=O)c2Cc2ccccc2)CC1 (stereo not shown) [Example 62] | 6.05
4 | Cc1cc(C2=CCC(c3[nH]c(=O)[nH]c(=O)c3Cc3ccccc3)CC2)n(C)n1 (stereo not shown) [Example 63] | 6.20
5 | O=c1[nH]c(C2CC=C(c3ccc(OC(F)(F)F)cc3F)CC2)c(Cc2ccccc2)c(=O)[nH]1 (stereo not shown) [Example 67] | 6.92
6 | CC(C)Oc1ccc(C2=CCC(c3[nH]c(=O)[nH]c(=O)c3Cc3ccccc3)CC2)c(F)c1 (stereo not shown) [Example 68] | 6.30
7 | CCn1nc(C(F)(F)F)cc1C1=CCC(c2[nH]c(=O)[nH]c(=O)c2Cc2ccccc2)CC1 (stereo not shown) [Example 71] | 6.83
8 | CS(=O)(=O)c1ccc(C2=CCC(c3[nH]c(=O)[nH]c(=O)c3Cc3ccccc3)CC2)c(F)c1 (stereo not shown) [Example 73] | 7.15
9 | CS(=O)(=O)c1ccc(C2=CCC(c3[nH]c(=O)[nH]c(=O)c3Cc3ccccc3)CC2)c(C(F)(F)F)c1 (stereo not shown) [Example 74] | 6.58
10 | CC(C)n1cc(C2=CCC(c3[nH]c(=O)[nH]c(=O)c3Cc3ccccc3)CC2)c(C(F)(F)F)n1 (stereo not shown) [Example 75] | 6.65
11 | Cn1cc(C2=CCC(c3[nH]c(=O)[nH]c(=O)c3Cc3ccccc3)CC2)c(C(F)(F)F)n1 (stereo not shown) [Example 77] | 6.77
12 | CCOc1ccc(C2=CCC(c3[nH]c(=O)[nH]c(=O)c3Cc3ccccc3)CC2)c(F)c1 (stereo not shown) [Example 78] | 6.76
13 | CCOc1ccc(C2=CCC(c3[nH]c(=O)[nH]c(=O)c3Cc3ccccc3)CC2)c(F)c1Cl (stereo not shown) [Example 79] | 6.28
14 | O=c1[nH]c(C2CC=C(c3ccc(Cl)cc3F)CC2)c(Cc2ccccc2)c(=O)[nH]1 (stereo not shown) [Example 81] | 6.40
15 | CNS(=O)(=O)c1ccc(C2=CCC(c3[nH]c(=O)[nH]c(=O)c3Cc3ccccc3)CC2)c(C(F)(F)F)c1 (stereo not shown) [Example 84] | 6.59
16 | O=c1[nH]c(C2CC=C(c3ccc(OCC4CC4)cc3Cl)CC2)c(Cc2ccccc2)c(=O)[nH]1 (stereo not shown) [Example 85, 5-benzyl-6-(2′-chloro-4′-(cyclopropylmethoxy)-2,3,4,5-tetrahydro-[1,1′-biphenyl]-4-yl)pyrimidine-2,4(1H,3H)-dione] | 5.86
17 | O=c1[nH]c(C2CC=C(c3ccc(OCCO)cc3Cl)CC2)c(Cc2ccccc2)c(=O)[nH]1 (stereo not shown) [Example 86] | 5.94
18 | O=c1[nH]c(C2CC=C(c3ccc(OCC(F)(F)F)cc3Cl)CC2)c(Cc2ccccc2)c(=O)[nH]1 (stereo not shown) [Example 87] | 6.34
19 | Cn1ncc2cccc(C3=CCC(c4[nH]c(=O)[nH]c(=O)c4Cc4ccccc4)CC3)c21 (stereo not shown) [Example 89] | 6.36
20 | CCOc1ccc(C2=CCC(c3[nH]c(=O)[nH]c(=O)c3Cc3ccccc3)CC2)c(Cl)c1F (stereo not shown) [Example 90] | 6.13
21 | CCOc1ccc(C2=CCC(c3[nH]c(=O)[nH]c(=O)c3Cc3ccccc3)CC2)c(F)c1F (stereo not shown) [Example 91] | 6.61
22 | O=c1[nH]c(C2CC=C(c3ccc(OC(F)(F)F)c(F)c3F)CC2)c(Cc2ccccc2)c(=O)[nH]1 (stereo not shown) [Example 92] | 6.10
23 | O=c1[nH]c(C2CC=C(c3ccc(OC4CC4)cc3F)CC2)c(Cc2ccccc2)c(=O)[nH]1 (stereo not shown) [Example 94] | 6.70
24 | CNS(=O)(=O)c1ccc(C2=CCC(c3[nH]c(=O)[nH]c(=O)c3Cc3ccccc3)CC2)c(F)c1 (stereo not shown) [Example 98] | 6.96
25 | CN(C)S(=O)(=O)c1ccc(C2=CCC(c3[nH]c(=O)[nH]c(=O)c3Cc3ccccc3)CC2)c(F)c1 (stereo not shown) [Example 99] | 6.14
26 | O=c1[nH]c(C2CC=C(c3ccc(S(=O)(=O)N4CCCC4)cc3F)CC2)c(Cc2ccccc2)c(=O)[nH]1 (stereo not shown) [Example 100] | 5.80
27 | CCS(=O)(=O)c1ccc(C2=CCC(c3[nH]c(=O)[nH]c(=O)c3Cc3ccccc3)CC2)c(F)c1 (stereo not shown) [Example 101] | 7.19
28 | CC(C)S(=O)(=O)c1ccc(C2=CCC(c3[nH]c(=O)[nH]c(=O)c3Cc3ccccc3)CC2)c(F)c1 (stereo not shown) [Example 102] | 6.57
